In patent EP4595972A1, “PEPTIDE FOR TREATING OR PREVENTING 4R TAUOPATHY” (GemVax & KAEL Co., Ltd., priority 2022, dated 2024):

How the values were obtained:
TauP301L-BiFC mice = experiment: Rota-rod test (motor ability) in 4R TauP301L-BiFC mouse model; type: in vivo
Method: • (1) After carrying out adaptation training for 3 days, a behavior experiment was performed on day 4. • (2) 1 hour before the experiment, a time for adaptation of experimental mice in a space where the behavior experiment is conducted, should be ensured. • (3) During the period for adaptation training, each mouse is forced to walk on a treadmill for 360 seconds at a speed of 5 rpm, 15 rpm, 20/25 rpm. Here, an experimental mouse losing a balance and fallen to the floor was forced to walk again. • (4) After the adaptation training, the behavior experiment was conducted by gradually increasing the speed from 5 rpm to 35 rpm for 480 seconds. When the treadmill worked, a time (seconds) taken until the experimental mouse lost the balance and fallen to the floor was measured.
Results of evaluating motor ability improvement efficacy through a Rota-rod test in a 4R TauP301L-BiFC mouse model were shown in Table 4 below and FIG. 2. Using a TauP301L-BiFC mouse model including 7- to 12-month-old mice administered with the drug for 5 months, the experiment was conducted. The results were analyzed through bidirectional ANOVA using Tukey's multiple-comparisons (*p<0.05; **p<0.01; n.s.: Insignificant for vehicle).

[1] = system: AT8 (phospho-Tau S202/T205); experiment: AT8 immunofluorescent staining of brain tissues (tau hyperphosphorylation); type: in vivo, mouse
From the text: • 1) Experimental method for brain tissue sampling • (1) On day 1, after completing 63 times administration schedule, the mice of TauP301L-BiFC mouse model were anesthetized, followed by preparing heart laparotomy. • (2) Saline was introduced into the heart of each mouse in the TauP301L-BiFC mouse model, followed by removing vivo blood using a perfusion pump machine. • (3) The brain of the mouse was extracted and weighed. • (4) The brain to be used for tissue staining experiment was immersed in 4% FPA solution and fixed for 24 hours. • (5) On day 2, after completing fixation, the brain tissues were immersed in 20% sucrose solution to remove water for 24 hours. • (6) On day 3, the brain tissues were immersed in 30% sucrose solution to remove water for 48 hours. • (7) On day 5, the brain tissues free of water were taken and extra moisture was removed. Then, the brain tissues and a frozen tissue embedding agent (OCT compound) were placed in a prepared mold, followed by freezing the brain tissues as fast as possible while protecting the tissues. The frozen brain tissue-containing mold was stored in a defreezer at -80°C. Thereafter, using a cryostat for frozen fragment, the tissues were cut into a unit thickness of 30 µm and stored in 0.05% sodium azide solution.
• (1) On day 1, a brain tissue sample having a thickness of 30 µm under cryosection was selected for each brain region, immersed in PBS solution, and then washed three times for 10 minutes. • (3) The sample was fixed in 3.7% formaldehyde for 5 minutes. • (4) The sample was washed in PBS solution three times for 10 minutes. • (5) The brain tissue sample was subjected to permeabilization in 0.3% PBS-T solution. • (6) The sample was immersed in 5% BSA in PBS solution for 1 hour for blocking. • (7) The brain tissues were input into 3% BSA in which primary antibody (AT8) was diluted at a ratio of 1:200, 0.1% Tween-20 in PBS solution, followed by overnight (O/N) binding. • (8) On day 2, the brain tissues were immersed in PBS solution, and washed three times for 10 minutes. • (9) The brain tissues were input into 3% BSA in which secondary antibody was diluted at a ratio of 1:500, 0.1% Tween-20 in PBS solution, followed by binding at room temperature for 1 hour. • (10) The brain tissues were immersed in PBS solution, and washed once for 10 minutes. • (11) The brain tissues were immersed in Hoechst (stock conc., 1mg/mL) diluted at a ratio of 1:2000 in PBS solution, followed by nuclei staining. • (12) The brain tissues were immersed in PBS solution, and washed three times for 10 minutes. • (13) Brain tissue fluorescent imaging was performed using a slide scanner.
• (1) In order to obtain fluorescent images of the stained brain tissues, a brain tissue slide was scanned using Zeiss Axio Scan (Zeiss, Oberkochen, Germany). • BiFC fluorescence: λex=460-490 nm, λem=500-550 nm • AT8 fluorescence: λex=620-640 nm, λem=650-700 nm • Hoechst fluorescence: λex=330-375 nm, λem=430-470 nm • (3) For brain tissues per site obtained through imaging, fluorescent value was calculated through Image J software (NIH).

tau aggregation = tau aggregation (Homo sapiens, UniProt P10636); conditions: reported in Kim et al., Exp. Mol. Med. 55, 612-627 (2023); read-out: EC50 (tau aggregation inhibitory section); cited from earlier work
[2] = reported in Kim et al., Exp. Mol. Med. 55, 612-627 (2023); read-out: GI50 (cytotoxicity side effects); cited from earlier work
[3] = LMTM 15 mg/kg oral vs. vehicle, decrease (in parentheses)
[4] = LMTM 15 mg/kg oral vs. vehicle, decrease (in parentheses), *p<0.05

tau aggregation, sequence (P10636 whole entry): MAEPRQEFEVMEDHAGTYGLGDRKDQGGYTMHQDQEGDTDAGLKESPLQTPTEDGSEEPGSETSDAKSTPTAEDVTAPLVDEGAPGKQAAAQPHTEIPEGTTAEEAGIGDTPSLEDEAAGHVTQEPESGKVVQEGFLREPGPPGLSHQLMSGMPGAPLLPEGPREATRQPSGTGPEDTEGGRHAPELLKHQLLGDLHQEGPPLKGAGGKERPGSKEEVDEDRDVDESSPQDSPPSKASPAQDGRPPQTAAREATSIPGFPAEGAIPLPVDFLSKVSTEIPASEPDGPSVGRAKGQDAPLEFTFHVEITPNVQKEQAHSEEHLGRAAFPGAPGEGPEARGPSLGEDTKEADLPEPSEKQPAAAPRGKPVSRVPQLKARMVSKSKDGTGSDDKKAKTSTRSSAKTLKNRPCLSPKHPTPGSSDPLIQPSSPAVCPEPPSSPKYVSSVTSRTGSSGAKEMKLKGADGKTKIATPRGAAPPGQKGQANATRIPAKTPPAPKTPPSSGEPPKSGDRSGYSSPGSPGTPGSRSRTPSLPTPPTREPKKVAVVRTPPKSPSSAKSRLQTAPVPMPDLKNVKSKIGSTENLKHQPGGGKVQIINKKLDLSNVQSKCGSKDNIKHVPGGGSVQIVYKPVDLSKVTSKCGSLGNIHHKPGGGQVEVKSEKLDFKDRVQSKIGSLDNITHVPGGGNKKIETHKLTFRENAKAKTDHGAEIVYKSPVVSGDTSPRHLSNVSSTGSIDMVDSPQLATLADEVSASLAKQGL

CN(C)c1ccc2c(c1)Sc1cc(N(C)C)ccc1N2.CS(=O)(=O)O.CS(=O)(=O)O [LMTM]
Duration (Rota-rod test on 11.9 months) (TauP301L-BiFC mice; LMTM 15 mg/kg oral vs. vehicle, improvement): 57%
exercise performance (Rota-rod treadmill), in words (TauP301L-BiFC mice; LMTM 15 mg/kg vs. vehicle, mice administered 59 times): exercise performance tended to improve, however, did not show a significant difference
AT8 fluorescent level, Somatosensory cortex [1, 3]: (31 %)
AT8 fluorescent level, Substantia nigra [1, 3]: (16 %)
AT8 fluorescent level, Hippocampus [1, 4]: (28 %)*
AT8 fluorescent level, Motor cortex [1, 4]: (26 %)*
AT8 fluorescent level as compared to the vehicle group, in words ([1]; LMTM 15 mpk): significantly reduced in the somatosensory cortex, motor cortex and hippocampus regions
EC50 (tau aggregation): 2.2 ± 0.2 µM
GI50 [2]: 6.4 ± 0.3 µM
